This is an account of results in ChEMBL document CHEMBL1138255, “Enantioselective synthesis and vanilloid activity evaluation of 1-beta-(p-methoxycinnamoyl)polygodial, an antinociceptive compound from Drymis winteri barks” (Bioorg Med Chem Lett, 2007).

In assay [1] the target is Transient receptor potential cation channel subfamily V member 1 (Homo sapiens) (UniProt Q8NER1). Description: Activity at human TRPV1 receptor expressed in HEK293 cells assessed as calcium influx relative to ionomycin. Format: cell-based.
Sequence of Transient receptor potential cation channel subfamily V member 1 (Homo sapiens) (Q8NER1 whole entry): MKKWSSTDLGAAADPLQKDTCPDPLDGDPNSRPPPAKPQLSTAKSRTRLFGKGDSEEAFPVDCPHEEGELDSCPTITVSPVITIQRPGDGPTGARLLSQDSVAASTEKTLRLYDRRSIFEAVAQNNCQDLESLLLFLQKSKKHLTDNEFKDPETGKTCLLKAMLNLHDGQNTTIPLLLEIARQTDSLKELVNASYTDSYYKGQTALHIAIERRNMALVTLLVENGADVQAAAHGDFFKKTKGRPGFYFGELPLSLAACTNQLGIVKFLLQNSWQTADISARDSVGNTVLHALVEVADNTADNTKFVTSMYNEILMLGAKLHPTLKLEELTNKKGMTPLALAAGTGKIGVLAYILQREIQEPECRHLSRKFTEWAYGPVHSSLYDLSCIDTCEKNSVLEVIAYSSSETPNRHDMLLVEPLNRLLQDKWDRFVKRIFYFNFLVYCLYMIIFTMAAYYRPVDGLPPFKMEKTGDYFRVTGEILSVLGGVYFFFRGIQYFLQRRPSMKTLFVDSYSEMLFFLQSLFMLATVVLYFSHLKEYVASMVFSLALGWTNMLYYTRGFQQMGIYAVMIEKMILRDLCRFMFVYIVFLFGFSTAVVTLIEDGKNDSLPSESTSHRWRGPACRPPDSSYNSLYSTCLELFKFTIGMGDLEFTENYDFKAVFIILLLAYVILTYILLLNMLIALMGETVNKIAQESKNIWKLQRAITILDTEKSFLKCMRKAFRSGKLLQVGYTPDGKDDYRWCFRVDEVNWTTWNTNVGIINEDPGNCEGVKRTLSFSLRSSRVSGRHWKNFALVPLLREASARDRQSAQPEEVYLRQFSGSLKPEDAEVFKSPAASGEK
The target is the same in assay [2]. Kind of assay: Activity at human TRPV1 receptor expressed in HEK293 cells assessed as calcium influx in presence of 5-iodo-resiniferatoxin. Format: cell-based.

In the case of `COc1ccc(/C=C/C(=O)O[C@@H]2CCC(C)(C)C3CC=C(CO)[C@H](CO)[C@]32C)cc1` (some centres undefined), the Activity in assay [1] is 0%. `CC1(C)CC[C@@H](O)[C@@]2(C)C1CC=C(C=O)[C@@H]2C=O` (some centres undefined): the Activity in assay [1] was found to be 0%. Regarding `COc1ccc(/C=C/C(=O)O[C@@H]2CCC(C)(C)C3CC=C(C=O)[C@H](C=O)[C@]32C)cc1` (some centres undefined), the Activity in assay [1] stood at 40.4%; in assay [2] it was 22%.
